Literature values in paper PMC6021394, “Novel haptens and monoclonal antibodies with subnanomolar affinity for a classical analytical target, ochratoxin A” (Scientific Reports, 2018).

For C[C@@H]1Cc2c(Cl)cc(C(=O)N[C@@H](Cc3ccccc3)C(=O)O)c(O)c2C(=O)O1 [OTA, Ochratoxin A], the tolerable weekly intake (European Food Safety Authority) is listed as 120 ng/kg of body weight and the IARC carcinogenicity classification (possibly carcinogenic to humans) is listed as “group 2B”.
